Key:
[1] = Liquid, Vibrating tube method
[2] = mn = molality of the nth substance listed, in mol/kg; settings: Liquid, m2 = 0

O [water]
mass density [kg/m3], [1]
Settings | 101 kPa | 10000 kPa | 25000 kPa | 50000 kPa | 75000 kPa | 100000 kPa
278.15 K | 999.96 | 1004.78 | 1011.88 | 1023.2 | 1033.92 | 1044.08
288.15 K | – | 1003.67 | 1010.42 | 1021.21 | 1031.47 | 1041.23
298.15 K | – | 1001.47 | 1007.99 | 1018.44 | 1028.38 | 1037.86
308.15 K | – | 998.36 | 1004.75 | 1014.97 | 1024.71 | 1034
323.15 K | 988.03 | 992.31 | 998.61 | 1008.68 | 1018.27 | 1027.42

O [water] + C[N+](C)(C)[O-]
mass density [kg/m3], [2]
Settings | 278.15 K | 288.15 K | 298.15 K | 308.15 K | 323.15 K
101 kPa, Vibrating tube method | 999.96 | – | – | – | 988.03
10000 kPa, Constant-volume piezometry | 1004.78 | 1003.67 | 1001.47 | 998.36 | 992.31
25000 kPa, Constant-volume piezometry | 1011.88 | 1010.42 | 1007.99 | 1004.75 | 998.61
50000 kPa, Constant-volume piezometry | 1023.2 | 1021.21 | 1018.44 | 1014.97 | 1008.68
75000 kPa, Constant-volume piezometry | 1033.92 | 1031.47 | 1028.38 | 1024.71 | 1018.27
100000 kPa, Constant-volume piezometry | 1044.08 | 1041.23 | 1037.86 | 1034 | 1027.42
